Experimental data as given in ChEMBL document CHEMBL5625245, “Novel ProTide prodrugs of 5-fluoro-2'-deoxyuridine for the treatment of liver cancer” (Eur J Med Chem, 2023).
The source made the active and inactive calls. The rule behind the calls is not given here.

The compounds below were run on Bel-7402 (assay: Antiproliferative activity against human Bel-7402 cells assessed as reduction in cell viability at 20 uM measured after 48 hrs by MTT assay relative to control).
Type: functional
`CC(C)C[C@H](N)C(=O)NCC(=O)O[C@H]1C[C@H](n2cc(F)c(=O)[nH]c2=O)O[C@@H]1CO[P@@](=O)(N[C@@H](C)C(=O)OC(C)C)Oc1ccccc1` was tested, and the Activity was 50%.
For `CC(C)OC(=O)[C@H](C)N[P@](=O)(OC[C@H]1O[C@@H](n2cc(F)c(=O)[nH]c2=O)C[C@@H]1OC(=O)[C@H](C)NC(=O)CNC(=O)OC(C)(C)C)Oc1ccccc1`, the Activity was 50%.
`CC(C)OC(=O)[C@H](C)N[P@](=O)(OC[C@H]1O[C@@H](n2cc(F)c(=O)[nH]c2=O)C[C@@H]1OC(=O)[C@H](Cc1ccccc1)NC(=O)[C@@H](N)C(C)C)Oc1ccccc1` showed an Activity of 50%.
With `CC(C)C[C@H](NC(=O)CN)C(=O)O[C@H]1C[C@H](n2cc(F)c(=O)[nH]c2=O)O[C@@H]1CO[P@@](=O)(N[C@@H](C)C(=O)OC(C)C)Oc1ccccc1` the Activity was 50%.
Work on `CC(C)C[C@H](NC(=O)OC(C)(C)C)C(=O)NCC(=O)O[C@H]1C[C@H](n2cc(F)c(=O)[nH]c2=O)O[C@@H]1CO[P@@](=O)(N[C@@H](C)C(=O)OC(C)C)Oc1ccccc1` yielded an Activity of 50%.
For `CC(C)OC(=O)[C@H](C)N[P@](=O)(OC[C@H]1O[C@@H](n2cc(F)c(=O)[nH]c2=O)C[C@@H]1OC(=O)OC(C)(C)C)Oc1ccccc1`, the Activity was 50%.

What follows are compounds tested on Bel-7402 (assay: Antiproliferative activity against human Bel-7402 cells assessed as reduction in cell viability at 20 uM measured after 48 hrs by MTT assay).
Type: functional, cell-based
With `CC(C)OC(=O)[C@H](C)N[P@](=O)(OC[C@H]1O[C@@H](n2cc(F)c(=O)[nH]c2=O)C[C@@H]1OC(=O)[C@@H](N)CC(=O)O)Oc1ccccc1` the Activity was “Active”.
With `CC(C)OC(=O)[C@H](C)N[P@](=O)(OC[C@H]1O[C@@H](n2cc(F)c(=O)[nH]c2=O)C[C@@H]1OC(=O)[C@H](C)N)Oc1ccccc1` the Activity was “Active”.
In the case of `CC(C)OC(=O)[C@H](C)N[P@](=O)(OC[C@H]1O[C@@H](n2cc(F)c(=O)[nH]c2=O)C[C@@H]1OC(=O)[C@@H](N)Cc1ccccc1)Oc1ccccc1`, the Activity is reported as “Active”.
`CC(C)OC(=O)[C@H](C)N[P@](=O)(OC[C@H]1O[C@@H](n2cc(F)c(=O)[nH]c2=O)C[C@@H]1OC(=O)CN)Oc1ccccc1` was tested, and the Activity was “Active”.
For `CC(C)C[C@H](N)C(=O)O[C@H]1C[C@H](n2cc(F)c(=O)[nH]c2=O)O[C@@H]1CO[P@@](=O)(N[C@@H](C)C(=O)OC(C)C)Oc1ccccc1`, the Activity was “Active”.

The compounds below were run on HepG2 (assay: Antiproliferative activity against human HepG2 cells assessed as reduction in cell viability at 20 uM measured after 48 hrs by MTT assay relative to control).
Type: functional
In the case of `CC(C)C[C@H](N)C(=O)NCC(=O)O[C@H]1C[C@H](n2cc(F)c(=O)[nH]c2=O)O[C@@H]1CO[P@@](=O)(N[C@@H](C)C(=O)OC(C)C)Oc1ccccc1`, the Activity is reported as 50%.
`CC(C)OC(=O)[C@H](C)N[P@](=O)(OC[C@H]1O[C@@H](n2cc(F)c(=O)[nH]c2=O)C[C@@H]1OC(=O)[C@H](C)NC(=O)CNC(=O)OC(C)(C)C)Oc1ccccc1` showed an Activity of 50%.
Work on `CC(C)OC(=O)[C@H](C)N[P@](=O)(OC[C@H]1O[C@@H](n2cc(F)c(=O)[nH]c2=O)C[C@@H]1OC(=O)[C@H](Cc1ccccc1)NC(=O)[C@@H](N)C(C)C)Oc1ccccc1` yielded an Activity of 50%.
`CC(C)C[C@H](NC(=O)CNC(=O)OC(C)(C)C)C(=O)O[C@H]1C[C@H](n2cc(F)c(=O)[nH]c2=O)O[C@@H]1CO[P@@](=O)(N[C@@H](C)C(=O)OC(C)C)Oc1ccccc1` showed an Activity greater than 50%.
In the case of `CC(C)C[C@H](NC(=O)CN)C(=O)O[C@H]1C[C@H](n2cc(F)c(=O)[nH]c2=O)O[C@@H]1CO[P@@](=O)(N[C@@H](C)C(=O)OC(C)C)Oc1ccccc1`, the Activity is reported as 50%.
`CC(C)C[C@H](NC(=O)OC(C)(C)C)C(=O)NCC(=O)O[C@H]1C[C@H](n2cc(F)c(=O)[nH]c2=O)O[C@@H]1CO[P@@](=O)(N[C@@H](C)C(=O)OC(C)C)Oc1ccccc1` gave an Activity of 50%.
Compound `CC(C)OC(=O)[C@H](C)N[P@](=O)(OC[C@H]1O[C@@H](n2cc(F)c(=O)[nH]c2=O)C[C@@H]1OC(=O)OC(C)(C)C)Oc1ccccc1` has an Activity of 50%.
